Patent US9320739B2 (AMBIT BIOSCIENCES CORPORATION, priority 2008, dated 2016)
Like-named read-outs stand apart in the source and are kept apart here.

Tested on: panel of 290 distinct kinases (321 in the larger panel), excluding mutant variants
[1] = no asterisk: panel of 290 distinct kinases, fraction of kinases inhibited 65% or greater
[2] = asterisk: panel of 321 distinct kinases, fraction of kinases inhibited 65% or greater
[3] = asterisk: panel of 321 distinct kinases
[4] = no asterisk: panel of 290 distinct kinases

Description: Competition binding assays used herein were developed, validated and performed as described in Fabian et al., Nature Biotechnology 2005, 23, 329-336. […] The liganded beads were blocked with excess biotin and washed with blocking buffer (SeaBlock (Pierce), 1% BSA, 0.05% Tween 20, 1 mM DTT) to remove unbound ligand and to reduce non-specific binding. […] Test compounds were prepared as 100× stocks in DMSO and rapidly diluted into the aqueous environment. DMSO was added to control assays lacking a test compound. Primary screen interactions were performed in polypropylene 384-well plates in a final volume of 34 μL, while Kd determinations were performed in polystyrene 96-well plates in a final volume of 135 pt. […] The kinase concentration in the eluates was measured by quantitative PCR. Each kinase was tested individually against each compound. Kds were determined using eleven serial threefold dilutions. A selectivity score, which is a quantitative measure of selectivity of a compound against a panel of enzymes, may be calculated for a compound by dividing the number of enzymes for which a compound meets a set criteria, (for example, a binding constant of 100 nM or less), by the total number of enzymes tested. […] (Note, for those compounds tested in a larger kinase panel, as indicated by an asterisk (*) next to the S35 score, the divisor is 321 (i.e. the larger panel contains 321 distinct kinases, excluding mutant variants.)).

Row | SMILES | S35 [4] | also measured
1 | COc1cc(OC2CCOCC2)c2c(Sc3cccc(NC(=O)Nc4cc(C(C)(C)C)on4)c3)ncnc2c1 |  | S35 [1]: C (0.20 < C ≦ 0.40)
2 | COc1cc2c(Sc3cccc(NC(=O)Nc4cc(C(C)(C)C)on4)c3)ncnc2cc1OCCN1CCN(CCO)CC1 [Ex 84, 1-(5-tert-butylisoxazol-3-yl)-3-(3-(7-(2-(4-(2-hydroxyethyl)piperazin-1-yl)ethoxy)-6-methoxyquinazolin-4-ylthio)phenyl)urea] |  | S35 [1]: D (D > 0.40)
3 | COc1cc2ncnc(Sc3cccc(NC(=O)Nc4cc(C(F)(F)F)n(-c5ccccc5)n4)c3)c2cc1OC [Ex 170, 1-[3-(6,7-dimethoxyquinazolin-4-ylthio)phenyl]-3-[1-phenyl-5-(trifluoromethyl)-1H-pyrazol-3-yl]urea] |  | S35 [2]: B* (0.10 < B ≦ 0.20)
4 | COc1cc2ncnc(Sc3cccc(NC(=O)Nc4cc(C(F)(F)F)n(C)n4)c3)c2cc1OC [Ex 194, 1-[3-(6,7-dimethoxyquinazolin-4-ylthio)phenyl]-3-[1-methyl-5-(trifluoromethyl)-1H-pyrazol-3-yl]urea] |  | S35 [2]: C* (0.20 < C ≦ 0.40)
5 | COc1cc2ncnc(Sc3cccc(NC(=O)Nc4cc(C(F)(F)F)nn4-c4ccc(C)cc4)c3)c2cc1OC [Ex 199, 1-[3-(6,7-dimethoxyquinazolin-4-ylthio)phenyl]-3-[1-p-tolyl-3-(trifluoromethyl)-1H-pyrazol-5-yl]urea] |  | S35 [2]: D* (D > 0.40)
6 | COCCOc1cc2ncnc(Oc3cccc(NC(=O)Nc4cc(C(F)(F)F)nn4-c4ccccc4)c3)c2cc1OC [Ex 221, 1-{3-[6-methoxy-7-(2-methoxyethoxy)quinazolin-4-yloxy]phenyl}-3-[1-phenyl-3-(trifluoromethyl)-1H-pyrazol-5-yl]urea] |  | S35 [3]: C * (0.20 < C ≦ 0.40)
7 | COCCOc1cc2ncnc(Sc3cccc(NC(=O)Nc4cc(C(F)(F)F)nn4-c4ccc(C)cc4)c3)c2cc1OC [Ex 243, 1-{3-[6-methoxy-7-(2-methoxyethoxy)quinazolin-4-ylthio]phenyl}-3-[1-p-tolyl-3-(trifluoromethyl)-1H-pyrazol-5-yl]urea] |  | S35 [3]: C * (0.20 < C ≦ 0.40)
8 | COc1cc2ncnc(Oc3cccc(NC(=O)Nc4cc(C(C)(C)CO)no4)c3)c2cc1OC [Ex 255, 1-(3-(6,7-dimethoxyquinazolin-4-yloxy)phenyl)-3-(3-(1-hydroxy-2-methylpropan-2-yl)isoxazol-5-yl)urea] | C (0.20 < C ≦ 0.40) | 
9 | COc1cc2ncnc(Oc3cccc(NC(=O)Nc4cc(C(C)(C)C)nn4-c4cccnc4C)c3)c2cc1OC [Ex 305, 1-(3-tert-butyl-1-(2-methylpyridin-3-yl)-1H-pyrazol-5-yl)-3-(3-(6,7-dimethoxyquinazolin-4-yloxy)phenyl)urea] | D (D > 0.40) | 
10 | COc1cc2ncnc(Oc3cccc(NC(=O)Nc4cc(C(C)(C)C(F)(F)F)nn4-c4ccccc4)c3)c2cc1OC [Ex 306, 1-(3-(6,7-dimethoxyquinazolin-4-yloxy)phenyl)-3-(1-phenyl-3-(1,1,1-trifluoro-2-methylpropan-2-yl)-1H-pyrazol-5-yl)urea] | D (D > 0.40) | 
11 | COc1cc2ncnc(Sc3cccc(NC(=O)Nc4cc(C(C)(C)C(F)(F)F)nn4-c4ccccc4)c3)c2cc1OC [Ex 307, 1-(3-(6,7-dimethoxyquinazolin-4-ylthio)phenyl)-3-(1-phenyl-3-(1,1,1-trifluoro-2-methylpropan-2-yl)-1H-pyrazol-5-yl)urea] | D (D > 0.40) | 
12 | COc1cc2ncnc(Oc3cccc(NC(=O)Nc4cc(C(C)(C)C#N)nn4-c4ccccc4)c3)c2cc1OC [Ex 308, 1-(3-(2-cyanopropan-2-yl)-1-phenyl-1H-pyrazol-5-yl)-3-(3-(6,7-dimethoxyquinazolin-4-yloxy)phenyl)urea] | D (D > 0.40) | 
13 | COc1cc2nc(Cl)nc(Oc3cccc(NC(=O)Nc4cc(C(C)(C)C)on4)c3)c2cc1OC [Ex 310, 1-(5-tert-butylisoxazol-3-yl)-3-(3-(2-chloro-6,7-dimethoxyquinazolin-4-yloxy)phenyl)urea] | A (A ≦ 0.10) | 
14 | COc1cc2ncnc(Oc3cccc(NC(=O)Nc4cc(C(C)(F)F)nn4-c4cccnc4)c3)c2cc1OC [Ex 311, 1-(3-(1,1-difluoroethyl)-1-(pyridin-3-yl)-1H-pyrazol-5-yl)-3-(3-(6,7-dimethoxyquinazolin-4-yloxy)phenyl)urea] | C (0.20 < C ≦ 0.40) | 
15 | COc1cc2ncnc(Oc3cccc(NC(=O)Nc4cc(C(C)(C)C)nn4-c4ccc(C)nc4)c3)c2cc1OC [Ex 312, 1-(3-tert-butyl-1-(6-methylpyridin-3-yl)-1H-pyrazol-5-yl)-3-(3-(6,7-dimethoxyquinazolin-4-yloxy)phenyl)urea] | D (D > 0.40) | 
16 | COc1cc2ncnc(Oc3cccc(NC(=O)Nc4cc(C(C)(C)C)nn4-c4cc[nH]c(=O)c4)c3)c2cc1OC [Ex 313, 1-(3-tert-butyl-1-(2-oxo-1,2-dihydropyridin-4-yl)-1H-pyrazol-5-yl)-3-(3-(6,7-dimethoxyquinazolin-4-yloxy)phenyl)urea] | D (D > 0.40) | 
17 | COc1cc2ncnc(Oc3cccc(NC(=O)Nc4cc(C(C)C)nn4-c4cncc(F)c4)c3)c2cc1OC [Ex 314, 1-(3-(6,7-dimethoxyquinazolin-4-yloxy)phenyl)-3-(1-(5-fluoropyridin-3-yl)-3-isopropyl-1H-pyrazol-5-yl)urea] | D (D > 0.40) | 

Row | SMILES | S35 [4] | also measured
18 | COc1ccc(-n2nc(C(C)(F)F)cc2NC(=O)Nc2cccc(Oc3ncnc4cc(OC)c(OC)cc34)c2)cc1 [Ex 315, 1-(3-(1,1-difluoroethyl)-1-(4-methoxyphenyl)-1H-pyrazol-5-yl)-3-(3-(6,7-dimethoxyquinazolin-4-yloxy)phenyl)urea] | D (D > 0.40) | 
19 | COc1cc2ncnc(Oc3cccc(NC(=O)Nc4cc(C(C)(F)F)nn4-c4cncc(F)c4)c3)c2cc1OC [Ex 316, 1-(3-(1,1-difluoroethyl)-1-(5-fluoropyridin-3-yl)-1H-pyrazol-5-yl)-3-(3-(6,7-dimethoxyquinazolin-4-yloxy)phenyl)urea] | C (0.20 < C ≦ 0.40) | 
20 | COc1cc2ncnc(Oc3cccc(NC(=O)Nc4cc(C(C)(C)C)nn4-c4ccc(=O)[nH]c4)c3)c2cc1OC [Ex 317, 1-(3-tert-butyl-1-(6-oxo-1,6-dihydropyridin-3-yl)-1H-pyrazol-5-yl)-3-(3-(6,7-dimethoxyquinazolin-4-yloxy)phenyl)urea] | D (D > 0.40) | 
21 | COc1cc2ncnc(Oc3cccc(NC(=O)Nc4cc(C(C)(F)F)nn4-c4ccccc4)c3)c2cc1OC [Ex 318, 1-(3-(1,1-difluoroethyl)-1-phenyl-1H-pyrazol-5-yl)-3-(3-(6,7-dimethoxyquinazolin-4-yloxy)phenyl)urea] | C (0.20 < C ≦ 0.40) | 
22 | COc1cc2ncnc(Sc3cccc(NC(=O)Nc4cc(C(C)(F)F)nn4-c4ccccc4)c3)c2cc1OC [Ex 319, 1-(3-(1,1-difluoroethyl)-1-phenyl-1H-pyrazol-5-yl)-3-(3-(6,7-dimethoxyquinazolin-4-ylthio)phenyl)urea] | C (0.20 < C ≦ 0.40) | 
23 | COc1cc2ncnc(Oc3cccc(NC(=O)Nc4cc(C(C)(C)C)nn4-c4ccnc(C)c4)c3)c2cc1OC [Ex 320, 1-(3-tert-butyl-1-(2-methylpyridin-4-yl)-1H-pyrazol-5-yl)-3-(3-(6,7-dimethoxyquinazolin-4-yloxy)phenyl)urea] | D (D > 0.40) | 
24 | CCn1nc(C(C)(C)C)cc1NC(=O)Nc1cccc(Sc2ncnc3cc(OC)c(OC)cc23)c1 [Ex 321, 1-(3-tert-butyl-1-ethyl-1H-pyrazol-5-yl)-3-(3-(6,7-dimethoxyquinazolin-4-ylthio)phenyl)urea] | C (0.20 < C ≦ 0.40) | 
25 | COc1cc2ncnc(Oc3cccc(NC(=O)Nc4cc(C(C)(C)C)nn4-c4cccnc4)c3)c2cc1OC [Ex 322, 1-(3-tert-butyl-1-(pyridin-3-yl)-1H-pyrazol-5-yl)-3-(3-(6,7-dimethoxyquinazolin-4-yloxy)phenyl)urea] | D (D > 0.40) | 
26 | COc1cc2ncnc(Sc3cccc(NC(=O)Nc4cc(C(C)(C)C)nn4-c4cccnc4)c3)c2cc1OC [Ex 323, 1-(3-tert-butyl-1-(pyridin-3-yl)-1H-pyrazol-5-yl)-3-(3-(6,7-dimethoxyquinazolin-4-ylthio)phenyl)urea] | D (D > 0.40) | 
27 | COc1cc2ncnc(Oc3cccc(NC(=O)Nc4cc(C(C)C)nn4-c4ccccc4)c3)c2cc1OC [Ex 324, 1-(3-(6,7-dimethoxyquinazolin-4-yloxy)phenyl)-3-(3-isopropyl-1-phenyl-1H-pyrazol-5-yl)urea] | D (D > 0.40) | 
28 | COc1cc2ncnc(Sc3cccc(NC(=O)Nc4cc(C(C)C)nn4-c4ccccc4)c3)c2cc1OC [Ex 325, 1-(3-(6,7-dimethoxyquinazolin-4-ylthio)phenyl)-3-(3-isopropyl-1-phenyl-1H-pyrazol-5-yl)urea] | C (0.20 < C ≦ 0.40) | 
29 | COc1cc2ncnc(Oc3cccc(NC(=O)Nc4cc(C(C)(C)C)nn4-c4cncc(F)c4)c3)c2cc1OC [Ex 326, 1-(3-tert-butyl-1-(5-fluoropyridin-3-yl)-1H-pyrazol-5-yl)-3-(3-(6,7-dimethoxyquinazolin-4-yloxy)phenyl)urea] | D (D > 0.40) | 
30 | COc1cc2ncnc(Sc3cccc(NC(=O)Nc4cc(C(C)(C)C)nn4-c4cncc(F)c4)c3)c2cc1OC [Ex 327, 1-(3-tert-butyl-1-(5-fluoropyridin-3-yl)-1H-pyrazol-5-yl)-3-(3-(6,7-dimethoxyquinazolin-4-ylthio)phenyl)urea] | D (D > 0.40) | 
31 | COc1cc2ncnc(Oc3cccc(NC(=O)Nc4cc(C(C)(C)C)nn4-c4ccc(C#N)cc4)c3)c2cc1OC [Ex 328, 1-(3-tert-butyl-1-(4-cyanophenyl)-1H-pyrazol-5-yl)-3-(3-(6,7-dimethoxyquinazolin-4-yloxy)phenyl)urea] | D (D > 0.40) | 
32 | COc1cc2ncnc(Sc3cccc(NC(=O)Nc4cc(C(C)(C)C)nn4-c4ccc(C#N)cc4)c3)c2cc1OC [Ex 329, 1-(3-tert-butyl-1-(4-cyanophenyl)-1H-pyrazol-5-yl)-3-(3-(6,7-dimethoxyquinazolin-4-ylthio)phenyl)urea] | D (D > 0.40) | 
33 | COc1cc2ncnc(Oc3cccc(NC(=O)Nc4cc(C(C)(C)C)nn4C4CCCCC4)c3)c2cc1OC [Ex 330, 1-(3-tert-butyl-1-cyclohexyl-1H-pyrazol-5-yl)-3-(3-(6,7-dimethoxyquinazolin-4-yloxy)phenyl)urea] | C (0.20 < C ≦ 0.40) | 
